Test results as given in patent US9468212B2, “Antifungal compositions” (DSM IP ASSETS B.V., priority 2013, dated 2016).
Values joined by “and” are separate entries in the source; they are usually repeats but may differ in a detail not shown here. Equal entries are not always repeated.

How the values were obtained:
Botrytis cinerea [1] = assay: Treatment of strawberries: wounded, inoculated with Botrytis cinerea, dipped in antifungal composition (Examples 5, 6); format: in vivo; settings: 20° C.
Protocol: Twelve fresh, organic strawberries were used per treatment. Each strawberry was wounded with a 0.5 mm long cut and each wound was inoculated with 10 μl of a Botrytis cinerea suspension containing 1×10^5 of spores/ml. After a 3-hour incubation period at 20° C., each strawberry was dipped individually for 1 minute in a freshly prepared aqueous antifungal composition comprising either 500 ppm natamycin (DSM Food Specialties, Delft, The Netherlands), 500 ppm fludioxonil or both. Each antifungal composition also comprised 3.2% (w/w) beeswax, 0.8% (w/w) glycerol, 0.7% (w/w) polyoxyethylene sorbitan monostearate (Tween 60), 0.1% (w/w) polyoxyethylene sorbitan monooleate (Tween 80), 0.05% (w/w) methylhydroxyethyl-cellulose (MH EC), 0.03% (w/w) anti-foaming agent, 0.02% (w/w) xanthan gum, 0.02% (w/w) citric acid, 0.01% (w/w) lactic acid and 0.01% potassium sorbate. A composition without natamycin or fludioxonil was used as control. […] The treated strawberries were incubated in a closed box in the dark at 20° C. for 19 days.
The expected antifungal activity (E in %) of the combined antifungal composition comprising both active ingredients was calculated according to the Colby equation (Colby, 1967): E=X+Y−[(X·Y)/100] wherein X and Y are the observed antifungal activities (in %) of the individual active ingredients X and Y, respectively.
The experiment was conducted as described in Example 5, except for the fact that each wounded and inoculated strawberry was dipped individually for 1 minute in a freshly prepared aqueous antifungal composition comprising either 250 ppm natamycin (DSM Food Specialties, Delft, The Netherlands), 250 ppm fludioxonil or both. During incubation, the treated strawberries were assessed on mould growth according to the two methods described in Example 5.

Botrytis cinerea [2] = assay: Treatment of sweet peppers: wounded, inoculated with Botrytis cinerea, wound treated with antifungal composition (Example 10); format: in vivo; settings: 400 ppm natamycin, 600 ppm fenpiclonil or both, 20° C.
Protocol: Ten fresh, organic sweet peppers were used per treatment. The peel of each sweet pepper was wounded once using a cork borer according to the method described by de Lapeyre de Bellaire and Dubois (1987). Subsequently, each wound was inoculated with 10 μl of a Botrytis cinerea suspension containing 1×10^5 of spores/ml. After incubation for 3 hours at 20° C., each wound and the skin area of 0.5 cm around the wound was treated with in total 75 μl of a freshly prepared aqueous antifungal composition comprising either 400 ppm natamycin (DSM Food Specialties, Delft, The Netherlands), 600 ppm fenpiclonil or both. Each antifungal composition also comprised 3.2% (w/w) beeswax, 0.8% (w/w) glycerol, 0.7% (w/w) polyoxyethylene sorbitan monostearate (Tween 60), 0.2% (w/w) polyoxyethylene sorbitan monooleate (Tween 80), 0.05% (w/w) methylhydroxyethyl-cellulose (MHEC), 0.03% (w/w) anti-foaming agent, 0.02% (w/w) xanthan gum, 0.02% (w/w) citric acid, 0.01% (w/w) lactic acid and 0.01% potassium sorbate. A composition without natamycin or fenpiclonil was used as control.
The treated sweet peppers were incubated in a closed box in the dark at 20° C. and assessed on mould growth during incubation. The antifungal activity (in %) of the individual and combined active ingredients was determined by calculating the reduction in mould growth observed on the sweet peppers treated with the antifungal composition in comparison to the mould growth on the sweet peppers treated with the control composition according to the Colby method (Colby, 1967) as described in Example 5.

[3] = 250 ppm natamycin, 250 ppm fludioxonil or both, 6 days
[4] = 250 ppm natamycin, 250 ppm fludioxonil or both, 7 days
[5] = 250 ppm natamycin, 250 ppm fludioxonil or both, 8 days
[6] = 250 ppm natamycin, 250 ppm fludioxonil or both, 9 days
[7] = 250 ppm natamycin, 250 ppm fludioxonil or both, 10 days
[8] = 250 ppm natamycin, 250 ppm fludioxonil or both, 11 days
[9] = 250 ppm natamycin, 250 ppm fludioxonil or both, 12 days
[10] = 250 ppm natamycin, 250 ppm fludioxonil or both, 13 days
[11] = 250 ppm natamycin, 250 ppm fludioxonil or both, 14 days
[12] = 250 ppm natamycin, 250 ppm fludioxonil or both, 15 days
[13] = 250 ppm natamycin, 250 ppm fludioxonil or both, 16 days
[14] = 250 ppm natamycin, 250 ppm fludioxonil or both, 18 days
[15] = 250 ppm natamycin, 250 ppm fludioxonil or both, 19 days
[16] = 250 ppm natamycin, 250 ppm fludioxonil or both, Day 6-8
[17] = 250 ppm natamycin, 250 ppm fludioxonil or both, Day 9
[18] = 250 ppm natamycin, 250 ppm fludioxonil or both, Day 10
[19] = 250 ppm natamycin, 250 ppm fludioxonil or both, Day 11
[20] = 250 ppm natamycin, 250 ppm fludioxonil or both, Day 12
[21] = 250 ppm natamycin, 250 ppm fludioxonil or both, Day 13
[22] = 250 ppm natamycin, 250 ppm fludioxonil or both, Day 14
[23] = 250 ppm natamycin, 250 ppm fludioxonil or both, Day 15
[24] = 500 ppm natamycin, 500 ppm fludioxonil or both, 7 days
[25] = 500 ppm natamycin, 500 ppm fludioxonil or both, 8 days
[26] = 500 ppm natamycin, 500 ppm fludioxonil or both, 9 days
[27] = 500 ppm natamycin, 500 ppm fludioxonil or both, 10 days
[28] = 500 ppm natamycin, 500 ppm fludioxonil or both, 11 days
[29] = 500 ppm natamycin, 500 ppm fludioxonil or both, 12 days
[30] = 500 ppm natamycin, 500 ppm fludioxonil or both, 13 days
[31] = 500 ppm natamycin, 500 ppm fludioxonil or both, 14 days
[32] = 500 ppm natamycin, 500 ppm fludioxonil or both, 15 days
[33] = 500 ppm natamycin, 500 ppm fludioxonil or both, 16 days
[34] = 500 ppm natamycin, 500 ppm fludioxonil or both, 18 days
[35] = 500 ppm natamycin, 500 ppm fludioxonil or both, 19 days
[36] = 500 ppm natamycin, 500 ppm fludioxonil or both, Day 7
[37] = 500 ppm natamycin, 500 ppm fludioxonil or both, Day 8
[38] = 500 ppm natamycin, 500 ppm fludioxonil or both, Day 9
[39] = 500 ppm natamycin, 500 ppm fludioxonil or both, Day 10-11
[40] = 500 ppm natamycin, 500 ppm fludioxonil or both, Day 12
[41] = 500 ppm natamycin, 500 ppm fludioxonil or both, Day 13
[42] = 500 ppm natamycin, 500 ppm fludioxonil or both, Day 14
[43] = 500 ppm natamycin, 500 ppm fludioxonil or both, Day 15
[44] = 500 ppm natamycin, 500 ppm fludioxonil or both, Day 16-17

SMILES: N#Cc1c[nH]cc1-c1cccc2c1OC(F)(F)O2 [Fludioxonil, fludioxonil]
- Observed antifungal activity O (%) (Botrytis cinerea [1]; [3]): 89%
- Observed antifungal activity O (%) (Botrytis cinerea [1]; [4]): 81%
- Observed antifungal activity O (%) (Botrytis cinerea [1]; [5]): 81%
- Observed antifungal activity O (%) (Botrytis cinerea [1]; [6]): 69%
- Observed antifungal activity O (%) (Botrytis cinerea [1]; [7]): 55%
- Observed antifungal activity O (%) (Botrytis cinerea [1]; [8]): 44%
- Observed antifungal activity O (%) (Botrytis cinerea [1]; [9]): 32%
- Observed antifungal activity O (%) (Botrytis cinerea [1]; [10]): 26%
- Observed antifungal activity O (%) (Botrytis cinerea [1]; [11]): 19%
- Observed antifungal activity O (%) (Botrytis cinerea [1]; [12]): 11%
- Observed antifungal activity O (%) (Botrytis cinerea [1]; [13]): 6.0%
- Observed antifungal activity O (%) (Botrytis cinerea [1]; [14]): 1.2%
- Observed antifungal activity O (%) (Botrytis cinerea [1]; [15]): 0%
- Number of moulded strawberries/total number of 12 strawberries (Botrytis cinerea [1]; [16]): 5 and 5/12
- Number of moulded strawberries/total number of 12 strawberries (Botrytis cinerea [1]; [17]): 8 and 8/12
- Number of moulded strawberries/total number of 12 strawberries (Botrytis cinerea [1]; [18]): 9 and 9/12
- Number of moulded strawberries/total number of 12 strawberries (Botrytis cinerea [1]; [19]): 10 and 10/12
- Number of moulded strawberries/total number of 12 strawberries (Botrytis cinerea [1]; [20]): 12 and 12/12
- Number of moulded strawberries/total number of 12 strawberries (Botrytis cinerea [1]; [21]): 12 and 12/12
- Number of moulded strawberries/total number of 12 strawberries (Botrytis cinerea [1]; [22]): 12 and 12/12
- Number of moulded strawberries/total number of 12 strawberries (Botrytis cinerea [1]; [23]): 12 and 12/12
- Observed antifungal activity O (%) (Botrytis cinerea [1]; [24]): 90%
- Observed antifungal activity O (%) (Botrytis cinerea [1]; [25]): 80%
- Observed antifungal activity O (%) (Botrytis cinerea [1]; [26]): 67%
- Observed antifungal activity O (%) (Botrytis cinerea [1]; [27]): 56%
- Observed antifungal activity O (%) (Botrytis cinerea [1]; [28]): 52%
- Observed antifungal activity O (%) (Botrytis cinerea [1]; [29]): 44%
- Observed antifungal activity O (%) (Botrytis cinerea [1]; [30]): 33%
- Observed antifungal activity O (%) (Botrytis cinerea [1]; [31]): 24%
- Observed antifungal activity O (%) (Botrytis cinerea [1]; [32]): 17%
- Observed antifungal activity O (%) (Botrytis cinerea [1]; [33]): 13%
- Observed antifungal activity O (%) (Botrytis cinerea [1]; [34]): 4.8%
- Observed antifungal activity O (%) (Botrytis cinerea [1]; [35]): 3.6%
- Number of moulded strawberries/total number of 12 strawberries (Botrytis cinerea [1]; [36]): 3 and 3/12
- Number of moulded strawberries/total number of 12 strawberries (Botrytis cinerea [1]; [37]): 5 and 5/12
- Number of moulded strawberries/total number of 12 strawberries (Botrytis cinerea [1]; [38]): 8 and 8/12
- Number of moulded strawberries/total number of 12 strawberries (Botrytis cinerea [1]; [39]): 9 and 9/12
- Number of moulded strawberries/total number of 12 strawberries (Botrytis cinerea [1]; [40]): 9 and 9/12
- Number of moulded strawberries/total number of 12 strawberries (Botrytis cinerea [1]; [41]): 11 and 11/12
- Number of moulded strawberries/total number of 12 strawberries (Botrytis cinerea [1]; [42]): 12 and 12/12
- Number of moulded strawberries/total number of 12 strawberries (Botrytis cinerea [1]; [43]): 12 and 12/12
- Number of moulded strawberries/total number of 12 strawberries (Botrytis cinerea [1]; [44]): 12 and 12/12

SMILES: C[C@@H]1C/C=C/C=C/C=C/C=C/[C@H](O[C@@H]2O[C@H](C)[C@@H](O)[C@H](N)[C@@H]2O)C[C@@H]2O[C@](O)(C[C@@H](O)C[C@H]3O[C@@H]3/C=C/C(=O)O1)C[C@H](O)[C@H]2C(=O)O [Natamycin, natamycin]
- Observed antifungal activity O (%) (Botrytis cinerea [2]; 47 days): 15%
- Observed antifungal activity O (%) (Botrytis cinerea [2]; 48 days): 6%
- Observed antifungal activity O (%) (Botrytis cinerea [2]; 49 days): 4%
- Observed antifungal activity O (%) (Botrytis cinerea [2]; 50 days): 3%
- Observed antifungal activity O (%) (Botrytis cinerea [1]; [3]): 23%
- Observed antifungal activity O (%) (Botrytis cinerea [1]; [4]): 23%
- Observed antifungal activity O (%) (Botrytis cinerea [1]; [5]): 18%
- Observed antifungal activity O (%) (Botrytis cinerea [1]; [6]): 13%
- Observed antifungal activity O (%) (Botrytis cinerea [1]; [7]): 4.8%
- Observed antifungal activity O (%) (Botrytis cinerea [1]; [8]): 4.8%
- Observed antifungal activity O (%) (Botrytis cinerea [1]; [9]): 1.2%
- Observed antifungal activity O (%) (Botrytis cinerea [1]; [10]): 1.2%
- Observed antifungal activity O (%) (Botrytis cinerea [1]; [11]): 1.2%
- Observed antifungal activity O (%) (Botrytis cinerea [1]; [12]): 0%
- Observed antifungal activity O (%) (Botrytis cinerea [1]; [13]): 0%
- Observed antifungal activity O (%) (Botrytis cinerea [1]; [14]): 0%
- Observed antifungal activity O (%) (Botrytis cinerea [1]; [15]): 0%
- Number of moulded strawberries/total number of 12 strawberries (Botrytis cinerea [1]; [16]): 11 and 11/12
- Number of moulded strawberries/total number of 12 strawberries (Botrytis cinerea [1]; [17]): 11 and 11/12
- Number of moulded strawberries/total number of 12 strawberries (Botrytis cinerea [1]; [18]): 12 and 12/12
- Number of moulded strawberries/total number of 12 strawberries (Botrytis cinerea [1]; [19]): 12 and 12/12
- Number of moulded strawberries/total number of 12 strawberries (Botrytis cinerea [1]; [20]): 12 and 12/12
- Number of moulded strawberries/total number of 12 strawberries (Botrytis cinerea [1]; [21]): 12 and 12/12
- Number of moulded strawberries/total number of 12 strawberries (Botrytis cinerea [1]; [22]): 12 and 12/12
- Number of moulded strawberries/total number of 12 strawberries (Botrytis cinerea [1]; [23]): 12 and 12/12
- Observed antifungal activity O (%) (Botrytis cinerea [1]; [24]): 11%
- Observed antifungal activity O (%) (Botrytis cinerea [1]; [25]): 14%
- Observed antifungal activity O (%) (Botrytis cinerea [1]; [26]): 4.8%
- Observed antifungal activity O (%) (Botrytis cinerea [1]; [27]): 2.4%
- Observed antifungal activity O (%) (Botrytis cinerea [1]; [28]): 2.4%
- Observed antifungal activity O (%) (Botrytis cinerea [1]; [29]): 0%
- Observed antifungal activity O (%) (Botrytis cinerea [1]; [30]): 0%
- Observed antifungal activity O (%) (Botrytis cinerea [1]; [31]): 0%
- Observed antifungal activity O (%) (Botrytis cinerea [1]; [32]): 0%
- Observed antifungal activity O (%) (Botrytis cinerea [1]; [33]): 0%
- Observed antifungal activity O (%) (Botrytis cinerea [1]; [34]): 0%
- Observed antifungal activity O (%) (Botrytis cinerea [1]; [35]): 0%
- Number of moulded strawberries/total number of 12 strawberries (Botrytis cinerea [1]; [36]): 12 and 12/12
- Number of moulded strawberries/total number of 12 strawberries (Botrytis cinerea [1]; [37]): 12 and 12/12
- Number of moulded strawberries/total number of 12 strawberries (Botrytis cinerea [1]; [38]): 12 and 12/12
- Number of moulded strawberries/total number of 12 strawberries (Botrytis cinerea [1]; [39]): 12 and 12/12
- Number of moulded strawberries/total number of 12 strawberries (Botrytis cinerea [1]; [40]): 12 and 12/12
- Number of moulded strawberries/total number of 12 strawberries (Botrytis cinerea [1]; [41]): 12 and 12/12
- Number of moulded strawberries/total number of 12 strawberries (Botrytis cinerea [1]; [42]): 12 and 12/12
- Number of moulded strawberries/total number of 12 strawberries (Botrytis cinerea [1]; [43]): 12 and 12/12
- Number of moulded strawberries/total number of 12 strawberries (Botrytis cinerea [1]; [44]): 12 and 12/12
